What was measured:
Assay type in all cases: in vivo
[1] = tested on: barnyardgrass (Echinochloa crus-galli); test: Test C flooded paddy test; details: Flood; for Plant response rating (scale of 0 to 100), Barnyardgrass: 0 is no effect, 100 is complete control
Excerpt: (§1) Plant species in the flooded paddy test consisted of rice (Oryza sativa), sedge, umbrella (small-flower umbrella sedge, Cyperus difformis), ducksalad (Heteranthera limosa), and barnyardgrass (Echinochloa crus-galli) grown to the 2-leaf stage for testing. At time of treatment, test pots were flooded to 3 cm above the soil surface, treated by application of test compounds directly to the paddy water, and then maintained at that water depth for the duration of the test. Treated plants and controls were maintained in a greenhouse for 13 to 15 d, after which time all species were compared to controls and visually evaluated. Plant response ratings, summarized in Table C, are based on a scale of 0 to 100 where 0 is no effect and 100 is complete control. A dash (-) response means no test result.

[2] = tested on: ducksalad (Heteranthera limosa); test: Test C flooded paddy test; details: Flood; for Plant response rating (scale of 0 to 100), Ducksalad: 0 is no effect, 100 is complete control
Excerpt: as §1

[3] = tested on: sedge, umbrella (small-flower umbrella sedge, Cyperus difformis); test: Test C flooded paddy test; details: Flood; for Plant response rating (scale of 0 to 100), Sedge, Umbrella: 0 is no effect, 100 is complete control
Excerpt: as §1

rice (Oryza sativa) = test: Test C flooded paddy test; details: Flood; for Plant response rating (scale of 0 to 100), Rice: 0 is no effect, 100 is complete control
Excerpt: as §1

[4] = tested on: giant foxtail (Setaria faberii); test: Test A postemergence
Outline: (§2)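 Seeds sprayed preemergence with a directed soil spray, or plants at 2 to 10 cm height and one- to two-leaf stage sprayed postemergence, with test chemicals in a non-phytotoxic solvent mixture containing surfactant, in loam soil–sand blend. Injury rated visually against untreated controls after about 10 d in greenhouse, 0 (no effect) to 100 (complete control).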

[5] = tested on: barnyardgrass (Echinochloa crus-galli); test: Test A postemergence
Outline: as §2

[6] = tested on: pigweed (Amaranthus retroflexus); test: Test A postemergence
Outline: as §2

[7] = tested on: ragweed (common ragweed, Ambrosia elatior); test: Test A postemergence
Outline: as §2

[8] = tested on: ryegrass, Italian (Italian ryegrass, Lolium multiflorum); test: Test A postemergence
Outline: as §2

[9] = tested on: blackgrass (Alopecurus myosuroides); test: Test A postemergence
Outline: as §2

[10] = tested on: Galium (catchweed bedstraw, Galium aparine); test: Test A postemergence
Outline: as §2

corn (Zea mays) = test: Test A postemergence
Outline: as §2

[11] = tested on: wheat (Triticum aestivum); test: Test A postemergence
Outline: as §2

Kochia (Kochia scoparia) [12] = test: Test A postemergence
Outline: as §2

[13] = tested on: barnyardgrass (Echinochloa crus-galli); test: Test B flooded paddy test; details: Flood, 250 g ai/ha; 0 to 100 scale where 0 is no effect and 100 is complete control; 13 to 15 d
Outline: (§3)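 Evaluation by eye, against controls, occurred 13–15 d post-treatment in a greenhouse, using a 0 (no effect) to 100 (complete control) scale. Application was into the paddy water, 3 cm deep over the soil, on 2-leaf plants.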

[14] = tested on: ducksalad (Heteranthera limosa); test: Test B flooded paddy test; details: Flood, 250 g ai/ha; 0 to 100 scale where 0 is no effect and 100 is complete control; 13 to 15 d
Outline: as §3

rice (Oryra sativa) = test: Test B flooded paddy test; details: Flood, 250 g ai/ha; 0 to 100 scale where 0 is no effect and 100 is complete control; 13 to 15 d
Outline: as §3

[15] = tested on: sedge, umbrella (small-flower umbrella sedge, Cyperus difformis); test: Test B flooded paddy test; details: Flood, 250 g ai/ha; 0 to 100 scale where 0 is no effect and 100 is complete control; 13 to 15 d
Outline: as §3

[16] = tested on: giant foxtail (Setaria faberii); test: Test A preemergence
Outline: as §2

[17] = tested on: barnyardgrass (Echinochloa crus-galli); test: Test A preemergence
Outline: as §2

[18] = tested on: pigweed (Amaranthus retroflexus); test: Test A preemergence
[19] = tested on: ragweed (common ragweed, Ambrosia elatior); test: Test A preemergence
Outline: as §2

[20] = tested on: ryegrass, Italian (Italian ryegrass, Lolium multiflorum); test: Test A preemergence
Outline: as §2

Kochia (Kochia scoparia) [21] = test: Test A preemergence
Outline: as §2

[22] = 31 g ai/ha, scale 0 to 100 (0 no effect, 100 complete control), 13 to 15 d
[23] = 125 g ai/ha, postemergence, visual rating after approx. 10 d, 0 to 100 scale (0 no effect, 100 complete control)
[24] = 500 g ai/ha, postemergence, visual injury, 0 to 100 scale (0 no effect, 100 complete control), approx. 10 d
[25] = 125 g ai/ha, Preemergence, visual injury after approximately 10 d, 0 to 100 scale where 0 is no effect and 100 is complete control
[26] = 500 g ai/ha, preemergence, 0 to 100 scale, 0 = no effect, 100 = complete control
[27] = 125 g ai/ha, postemergence, visual injury rating on 0 to 100 scale (0 no effect, 100 complete control), approx. 10 d
[28] = Postemergence, 500 g ai/ha, 0 to 100 scale where 0 is no effect and 100 is complete control
[29] = Preemergence, 500 g ai/ha, visual injury approx. 10 d

## Cc1ccc(C2CN(C)C(=O)C2C(=O)Nc2ccccc2F)cc1 (centres unmarked) [Compound 661]
[1]; [22]
  Plant response rating, Barnyardgrass: 25
[1]; 62 g ai/ha
  Plant response rating (scale of 0 to 100), Barnyardgrass: 70
[1]; 125 g ai/ha
  Plant response rating (scale of 0 to 100), Barnyardgrass: 80
[1]; 250 g ai/ha
  Plant response rating (scale of 0 to 100), Barnyardgrass: 85
[2]; [22]
  Plant response rating, Ducksalad: 65
[2]; 62 g ai/ha
  Plant response rating (scale of 0 to 100), Ducksalad: 75
[2]; 125 g ai/ha
  Plant response rating (scale of 0 to 100), Ducksalad: 95
[2]; 250 g ai/ha
  Plant response rating (scale of 0 to 100), Ducksalad: 100
[3]; [22]
  Plant response rating, Sedge, Umbrella: 0
[3]; 62 g ai/ha
  Plant response rating (scale of 0 to 100), Sedge, Umbrella: 0
[3]; 125 g ai/ha
  Plant response rating (scale of 0 to 100), Sedge, Umbrella: 0
[3]; 250 g ai/ha
  Plant response rating (scale of 0 to 100), Sedge, Umbrella: 0
Rice (Oryza sativa); [22]
  Plant response rating, Rice: 0
Rice (Oryza sativa); 62 g ai/ha
  Plant response rating (scale of 0 to 100), Rice: 0
Rice (Oryza sativa); 125 g ai/ha
  Plant response rating (scale of 0 to 100), Rice: 0
Rice (Oryza sativa); 250 g ai/ha
  Plant response rating (scale of 0 to 100), Rice: 10
[4]; [23]
  Plant response rating, Foxtail, Giant: 90
[4]; [24]
  Plant response rating, Foxtail, Giant: 90
[5]; [23]
  Plant response rating, Barnyardgrass: 90
[5]; [24]
  Plant response rating, Barnyardgrass: 90
[6]; [23]
  Plant response rating, Pigweed: 0
[6]; [24]
  Plant response rating, Pigweed: 0
[7]; [23]
  Plant response rating, Ragweed: 10
[7]; [24]
  Plant response rating, Ragweed: 50
[8]; [23]
  Plant response rating, Ryegrass, Italian: 30
[8]; [24]
  Plant response rating, Ryegrass, Italian: 80
[9]; [23]
  Plant response rating, Blackgrass: 50
[9]; [24]
  Plant response rating, Blackgrass: 70
[10]; [23]
  Plant response rating, Galium: 50
[10]; [24]
  Plant response rating, Galium: 60
Corn (Zea mays); [23]
  Plant response rating, Corn: 50
Corn (Zea mays); [24]
  Plant response rating, Corn: 90
[11]; [23]
  Plant response rating, Wheat: 30
[11]; [24]
  Plant response rating, Wheat: 80
Kochia (Kochia scoparia) [12]; [23]
  Plant response rating, Kochia: 60
Kochia (Kochia scoparia) [12]; [24]
  Plant response rating, Kochia: 70
[13]
  Plant response rating, Barnyardgrass: 80
[14]
  Plant response rating, Ducksalad: 100
Rice (Oryra sativa)
  Plant response rating, Rice: 10
[15]
  Plant response rating, Sedge, Umbrella: 0
[16]; [25]
  Plant response rating, Foxtail, Giant: 90
[16]; [26]
  Plant response rating, Foxtail, Giant: 100
[17]; [25]
  Plant response rating, Barnyardgrass: 90
[17]; [26]
  Plant response rating, Barnyardgrass: 90
[18]; [25]
  Plant response rating, Pigweed: 0
[18]; [26]
  Plant response rating, Pigweed: 40
[19]; [25]
  Plant response rating, Ragweed: 70
[19]; [26]
  Plant response rating, Ragweed: 80
[20]; [25]
  Plant response rating, Ryegrass, Italian: 30
[20]; [26]
  Plant response rating, Ryegrass, Italian: 50
Kochia (Kochia scoparia) [21]; [25]
  Plant response rating, Kochia: 50
Kochia (Kochia scoparia) [21]; [26]
  Plant response rating, Kochia: 70

## O=C1NCC(c2cccc(F)c2F)C1C(=O)Nc1cccc(F)c1F (centres unmarked) [Compound 487]
[1]; 31 g ai/ha
  Plant response rating (scale of 0 to 100), Barnyardgrass: 0
[1]; 62 g ai/ha
  Plant response rating (scale of 0 to 100), Barnyardgrass: 15
[1]; 125 g ai/ha
  Plant response rating (scale of 0 to 100), Barnyardgrass: 20
[1]; 250 g ai/ha
  Plant response rating (scale of 0 to 100), Barnyardgrass: 65
[2]; 31 g ai/ha
  Plant response rating (scale of 0 to 100), Ducksalad: 30
[2]; 62 g ai/ha
  Plant response rating (scale of 0 to 100), Ducksalad: 45
[2]; 125 g ai/ha
  Plant response rating (scale of 0 to 100), Ducksalad: 85
[2]; 250 g ai/ha
  Plant response rating (scale of 0 to 100), Ducksalad: 100
[3]; 31 g ai/ha
  Plant response rating (scale of 0 to 100), Sedge, Umbrella: 0
[3]; 62 g ai/ha
  Plant response rating (scale of 0 to 100), Sedge, Umbrella: 0
[3]; 125 g ai/ha
  Plant response rating (scale of 0 to 100), Sedge, Umbrella: 0
[3]; 250 g ai/ha
  Plant response rating (scale of 0 to 100), Sedge, Umbrella: 0
Rice (Oryza sativa); 31 g ai/ha
  Plant response rating (scale of 0 to 100), Rice: 0
Rice (Oryza sativa); 62 g ai/ha
  Plant response rating (scale of 0 to 100), Rice: 0
Rice (Oryza sativa); 125 g ai/ha
  Plant response rating (scale of 0 to 100), Rice: 0
Rice (Oryza sativa); 250 g ai/ha
  Plant response rating (scale of 0 to 100), Rice: 0
[4]; [27]
  Foxtail, Giant plant response rating: 80
[4]; [28]
  Plant response rating, Foxtail, Giant: 90
[5]; [27]
  Barnyardgrass plant response rating: 80
[5]; [28]
  Plant response rating, Barnyardgrass: 90
[6]; [27]
  Pigweed plant response rating: 0
[6]; [28]
  Plant response rating, Pigweed: 20
[7]; [27]
  Ragweed plant response rating: 0
[7]; [28]
  Plant response rating, Ragweed: 0
[8]; [27]
  Ryegrass, Italian plant response rating: 0
[8]; [28]
  Plant response rating, Ryegrass, Italian: 20
[9]; [27]
  Blackgrass plant response rating: 0
[9]; [28]
  Plant response rating, Blackgrass: 30
[10]; [27]
  Galium plant response rating: 0
[10]; [28]
  Plant response rating, Galium: 0
Corn (Zea mays); [27]
  Corn plant response rating: 0
Corn (Zea mays); [28]
  Plant response rating, Corn: 20
[11]; [27]
  Wheat plant response rating: 0
[11]; [28]
  Plant response rating, Wheat: 20
Kochia (Kochia scoparia) [12]; [27]
  Kochia plant response rating: 0
Kochia (Kochia scoparia) [12]; [28]
  Plant response rating, Kochia: 30
[13]
  Plant response rating, Barnyardgrass: 75
[14]
  Plant response rating, Ducksalad: 95
Rice (Oryra sativa)
  Plant response rating, Rice: 0
[15]
  Plant response rating, Sedge, Umbrella: 0
[16]; [25]
  Plant response rating, Foxtail, Giant: 90
[16]; [29]
  Foxtail, Giant plant response rating (0 to 100 scale, 0 is no effect, 100 is complete control): 90
[17]; [25]
  Plant response rating, Barnyardgrass: 90
[17]; [29]
  Barnyardgrass plant response rating (0 to 100 scale, 0 is no effect, 100 is complete control): 90
[18]; [25]
  Plant response rating, Pigweed: 0
[18]; [29]
  Pigweed plant response rating (0 to 100 scale, 0 is no effect, 100 is complete control): 30
[19]; [25]
  Plant response rating, Ragweed: 30
[19]; [29]
  Ragweed plant response rating (0 to 100 scale, 0 is no effect, 100 is complete control): 30
[20]; [25]
  Plant response rating, Ryegrass, Italian: 20
[20]; [29]
  Ryegrass, Italian plant response rating (0 to 100 scale, 0 is no effect, 100 is complete control): 40
Kochia (Kochia scoparia) [21]; [25]
  Plant response rating, Kochia: 30
Kochia (Kochia scoparia) [21]; [29]
  Kochia plant response rating (0 to 100 scale, 0 is no effect, 100 is complete control): 60

— patent US12077503B2, “Substituted cyclic amides and their use as herbicides” (FMC CORPORATION, priority 2015, dated 2024)
